From US10721934B2, “Enhanced preservative” (Arch Chemicals, Inc., priority 2013, dated 2020)

Tests used:
Format in all cases: cell-based
[1] = system: mixed bacterial inoculum (Pseudomonas aeruginosa, Enterobacter cloacae, Escherichia coli, Acinetobacter calcoaceticus); assay: Repeated inoculation of standard acrylic paint, streak plate rating
How it was run: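 Acrylic paint containing pyrithione, isothiazolinone and biocide enhancing agent, alone or mixed at varied concentrations, was challenged three times with an aqueous suspension of the four bacteria in equal proportions. Samples were streak plated 24, 48 and 72 h after inoculation and the plates rated for growth.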

[2] = system: Pseudomonas aeruginosa ATCC 15442; assay: Minimum Inhibitory Concentration (MIC) test, 96 well microtiter plate; settings: single chemical
Description: Microorganisms: Pseudomonas aeruginosa ATCC 15442
MIC set up: A 96 well microtiter plate Minimum Inhibitory Concentration (MIC) test was run in broth suitable for the test organism. Serially diluted actives were prepared in sterilized water, and the start-up concentration varied depending on the efficacy range. Inocula prepared in 2× suitable broth was added into each well, and the final concentrations of bacteria were adjusted to approximately 5×10^5.

Candida albicans = assay: MIC test, 96 well microtiter plate; settings: single chemical
How it was run: (§1)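 Broth microdilution MIC in broth suited to each organism; actives serially diluted in sterile water, starting concentration set by efficacy range. Inoculum in 2× broth added per well to approximately 5×10^5 final. Amines also tested combined with a pyrithione and two isothiazolinones.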

Aspergillus brasiliensis = assay: MIC test, 96 well microtiter plate; settings: single chemical
How it was run: as §1

Aureobasidium pullulans = assay: MIC test, 96 well microtiter plate; settings: single chemical
How it was run: as §1

Escherichia coli = assay: MIC test, 96 well microtiter plate; settings: single chemical
How it was run: as §1

Staphylococcus aureus = assay: MIC test, 96 well microtiter plate; settings: single chemical
How it was run: as §1

Zinc Pyrithione [ZnPT] showed a streak plate rating ([1]; Set Five, ZPT 50 ppm, 1st inoculation 24 h) of 0, a streak plate rating ([1]; Set Five, ZPT 50 ppm, 1st inoculation 48 h) of 0 and a streak plate rating ([1]; Set Five, ZPT 50 ppm, 1st inoculation 72 h) of 0. The streak plate rating ([1]; Set Five, ZPT 50 ppm, 2nd inoculation 24 h) was 2 (6-15 viable microorganisms Lightly contaminated), the streak plate rating ([1]; Set Five, ZPT 50 ppm, 2nd inoculation 48 h) was 0 and the streak plate rating ([1]; Set Five, ZPT 50 ppm, 2nd inoculation 72 h) was 0. The streak plate rating ([1]; Set Five, ZPT 50 ppm, 3rd inoculation 24 h) was 3 (16-30 viable microorganisms Moderately contaminated), the streak plate rating ([1]; Set Five, ZPT 50 ppm, 3rd inoculation 48 h) was 5 (>45 viable microorganisms Severely contaminated) and the streak plate rating ([1]; Set Five, ZPT 50 ppm, 3rd inoculation 72 h) was 5 (>45 viable microorganisms Severely contaminated). For the same substance, the streak plate rating ([1]; Set Four, ZPT 50 ppm, 1st inoculation 24 h) was 0, the streak plate rating ([1]; Set Four, ZPT 50 ppm, 1st inoculation 48 h) was 0 and the streak plate rating ([1]; Set Four, ZPT 50 ppm, 1st inoculation 72 h) was 0. The streak plate rating ([1]; Set Four, ZPT 50 ppm, 2nd inoculation 24 h) was 2 (6-15 viable microorganisms Lightly contaminated), the streak plate rating ([1]; Set Four, ZPT 50 ppm, 2nd inoculation 48 h) was 0 and the streak plate rating ([1]; Set Four, ZPT 50 ppm, 2nd inoculation 72 h) was 0. The streak plate rating ([1]; Set Four, ZPT 50 ppm, 3rd inoculation 24 h) was 3 (16-30 viable microorganisms Moderately contaminated), the streak plate rating ([1]; Set Four, ZPT 50 ppm, 3rd inoculation 48 h) was 5 (>45 viable microorganisms Severely contaminated) and the streak plate rating ([1]; Set Four, ZPT 50 ppm, 3rd inoculation 72 h) was 5 (>45 viable microorganisms Severely contaminated). For the same substance, the streak plate rating ([1]; Set One, ZPT 50 ppm, 1st inoculation 24 h) was 3 (16-30 viable microorganisms Moderately contaminated), the streak plate rating ([1]; Set One, ZPT 50 ppm, 1st inoculation 48 h) was 3 (16-30 viable microorganisms Moderately contaminated) and the streak plate rating ([1]; Set One, ZPT 50 ppm, 2nd inoculation 24 h) was 5 (>45 viable microorganisms Severely contaminated). For the same substance, the streak plate rating ([1]; Set One, ZPT 50 ppm, 2nd inoculation 48 h) was 5 (>45 viable microorganisms Severely contaminated), the streak plate rating ([1]; Set One, ZPT 50 ppm, 2nd inoculation 72 h) was 5 (>45 viable microorganisms Severely contaminated) and the streak plate rating ([1]; Set One, ZPT 50 ppm, 3rd inoculation 24 h) was 5 (>45 viable microorganisms Severely contaminated). The streak plate rating ([1]; Set One, ZPT 50 ppm, 3rd inoculation 48 h) was 5 (>45 viable microorganisms Severely contaminated), the streak plate rating ([1]; Set One, ZPT 50 ppm, 3rd inoculation 72 h) was 5 (>45 viable microorganisms Severely contaminated) and the streak plate rating ([1]; Set Three, ZPT 50 ppm, 1st inoculation 24 h) was 5 (>45 viable microorganisms Severely contaminated). For the same substance, the streak plate rating ([1]; Set Three, ZPT 50 ppm, 1st inoculation 48 h) was 3 (16-30 viable microorganisms Moderately contaminated), the streak plate rating ([1]; Set Three, ZPT 50 ppm, 1st inoculation 72 h) was 5 (>45 viable microorganisms Severely contaminated) and the streak plate rating ([1]; Set Three, ZPT 50 ppm, 2nd inoculation 24 h) was 5 (>45 viable microorganisms Severely contaminated). For the same substance, the streak plate rating ([1]; Set Three, ZPT 50 ppm, 2nd inoculation 48 h) was 5 (>45 viable microorganisms Severely contaminated), the streak plate rating ([1]; Set Three, ZPT 50 ppm, 2nd inoculation 72 h) was 5 (>45 viable microorganisms Severely contaminated) and the streak plate rating ([1]; Set Three, ZPT 50 ppm, 3rd inoculation 24 h) was 5 (>45 viable microorganisms Severely contaminated). For the same substance, the streak plate rating ([1]; Set Three, ZPT 50 ppm, 3rd inoculation 48 h) was 5 (>45 viable microorganisms Severely contaminated), the streak plate rating ([1]; Set Three, ZPT 50 ppm, 3rd inoculation 72 h) was 5 (>45 viable microorganisms Severely contaminated) and the streak plate rating ([1]; Set Two, ZPT 25 ppm, 1st inoculation 24 h) was 5 (>45 viable microorganisms Severely contaminated). For the same substance, the streak plate rating ([1]; Set Two, ZPT 25 ppm, 1st inoculation 48 h) was 5 (>45 viable microorganisms Severely contaminated), the streak plate rating ([1]; Set Two, ZPT 25 ppm, 1st inoculation 72 h) was 5 (>45 viable microorganisms Severely contaminated) and the streak plate rating ([1]; Set Two, ZPT 25 ppm, 2nd inoculation 24 h) was 5 (>45 viable microorganisms Severely contaminated). The streak plate rating ([1]; Set Two, ZPT 25 ppm, 2nd inoculation 48 h) was 5 (>45 viable microorganisms Severely contaminated), the streak plate rating ([1]; Set Two, ZPT 25 ppm, 2nd inoculation 72 h) was 5 (>45 viable microorganisms Severely contaminated) and the streak plate rating ([1]; Set Two, ZPT 25 ppm, 3rd inoculation 24 h) was 5 (>45 viable microorganisms Severely contaminated). For the same substance, the streak plate rating ([1]; Set Two, ZPT 25 ppm, 3rd inoculation 48 h) was 5 (>45 viable microorganisms Severely contaminated), the streak plate rating ([1]; Set Two, ZPT 25 ppm, 3rd inoculation 72 h) was 5 (>45 viable microorganisms Severely contaminated) and the streak plate rating ([1]; Set Two, ZPT 50 ppm, 1st inoculation 24 h) was 2 (6-15 viable microorganisms Lightly contaminated). For the same substance, the streak plate rating ([1]; Set Two, ZPT 50 ppm, 1st inoculation 48 h) was 3 (16-30 viable microorganisms Moderately contaminated), the streak plate rating ([1]; Set Two, ZPT 50 ppm, 1st inoculation 72 h) was 3 (16-30 viable microorganisms Moderately contaminated) and the streak plate rating ([1]; Set Two, ZPT 50 ppm, 2nd inoculation 24 h) was 4 (31-45 viable microorganisms Heavily contaminated). The streak plate rating ([1]; Set Two, ZPT 50 ppm, 2nd inoculation 48 h) was 5 (>45 viable microorganisms Severely contaminated), the streak plate rating ([1]; Set Two, ZPT 50 ppm, 2nd inoculation 72 h) was 5 (>45 viable microorganisms Severely contaminated) and the streak plate rating ([1]; Set Two, ZPT 50 ppm, 3rd inoculation 24 h) was 5 (>45 viable microorganisms Severely contaminated). The streak plate rating ([1]; Set Two, ZPT 50 ppm, 3rd inoculation 48 h) was 5 (>45 viable microorganisms Severely contaminated), the streak plate rating ([1]; Set Two, ZPT 50 ppm, 3rd inoculation 72 h) was 5 (>45 viable microorganisms Severely contaminated) and the “Minimum Inhibitory Concentration” value [2] was 62.5 ppm. The “Minimum Inhibitory Concentration” value (Candida albicans) was 7.8 ppm, the “Minimum Inhibitory Concentration” value (Aspergillus brasiliensis) was 15.6 ppm and the “Minimum Inhibitory Concentration” value (Aureobasidium pullulans) was 3.9 ppm. The “Minimum Inhibitory Concentration” value (Escherichia coli) was 3.9 ppm and the “Minimum Inhibitory Concentration” value (Staphylococcus aureus) was 7.8 ppm.
